The results in this text go back to paper PMC9637222, “Autoinducer-2 and bile salts induce c-di-GMP synthesis to repress the T3SS via a T3SS chaperone” (Nature Communications, 2022).

For one test, the target named is T1, SicA N70A (Salmonella typhimurium, UniProt P69066, N70A).
T1 construct: His6 (N, cleaved yes); made in house; host or cells: E. coli BL21(DE3), pET-28a (pET28a-sicAN70A)
The format is binding, S. Typhimurium.

In another test the target is PcrH (WP_003113548) (Pseudomonas aeruginosa, UniProt Q9I325). It counts as binding. Conditions: for Kd: ITC.
A further test addresses T2, BicA (WP_009896148) (Burkholderia thailandensis, UniProt Q2T712).
T2 sequence (Q2T712 1-171): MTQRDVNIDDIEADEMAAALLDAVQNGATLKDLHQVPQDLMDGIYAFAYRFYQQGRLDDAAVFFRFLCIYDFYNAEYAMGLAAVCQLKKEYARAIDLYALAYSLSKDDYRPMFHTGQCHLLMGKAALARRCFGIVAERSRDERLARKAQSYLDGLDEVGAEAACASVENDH
The format is binding.

In another test the test system is InvF-His6 / SicA-HA. Kind of test: Co-IP of InvF-His6 with SicA-HA in presence of nucleotides. Conditions: nucleotide added to lysate.

Where “and” joins values, the source holds several entries; their conditions need not be identical. Equal values may be shown once. Read-outs that look alike come from different tables or passages of the source.

T1 sequence (P69066 whole entry N70A): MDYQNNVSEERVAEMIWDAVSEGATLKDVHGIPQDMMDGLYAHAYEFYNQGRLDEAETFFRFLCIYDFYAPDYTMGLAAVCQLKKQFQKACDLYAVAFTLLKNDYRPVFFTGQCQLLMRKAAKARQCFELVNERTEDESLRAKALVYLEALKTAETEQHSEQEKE
Sequence of PcrH (WP_003113548) (Q9I325 1-167): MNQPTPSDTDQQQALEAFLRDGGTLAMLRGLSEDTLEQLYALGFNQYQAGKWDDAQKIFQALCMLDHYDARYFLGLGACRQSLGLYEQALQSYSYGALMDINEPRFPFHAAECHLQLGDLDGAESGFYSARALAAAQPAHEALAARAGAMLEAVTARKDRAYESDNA

Turning to `Nc1nc2c(ncn2C2OC3COP(=O)(O)OC4C(COP(=O)(O)OC3C2O)OC(n2cnc3c(=O)[nH]c(N)nc32)C4O)c(=O)[nH]1` (stereo not shown) [c-di-GMP, Cyclic di-GMP], at SicA N70A (ITC binding stoichiometry n, individual replicates, Supplementary Figure 17e), the “n, c-di-GMP binding to SicAN70A” value was 0.95 and 1.03. In addition, the “Increase in Kd, SicA N70A versus SicA” value on SicA N70A (ITC, peer review file) is listed as 140 fold. In addition, the dissociation constant Kd at SicA N70A (binding to SicA N70A) was 28000 nM and 31000 nM and 32000 nM; on PcrH (WP_003113548) (individual replicates, Supplementary Figure 22a, read-out: Kd, c-di-GMP binding to PcrH), 130 nM and 190 nM; on PcrH (WP_003113548) (range given for all 6 chaperones (PcrH, IpgC, SycD, CesD, BicA, VcrH), read-out: Kd), 150 to 220 nM; at BicA (WP_009896148), 150 to 220 nM; on BicA (WP_009896148) (read-out: Kd, c-di-GMP binding to BicA), 190 nM and 200 nM and 240 nM. In addition, the “n, c-di-GMP binding to PcrH” value on PcrH (WP_003113548) (ITC binding stoichiometry n, individual replicates, Supplementary Figure 22a) was 1.15 and 1.14 and 1.18. Further, at BicA (WP_009896148), the “n, c-di-GMP binding to BicA” value is 1.12 and 1.17 and 1.14. Besides, the “Effect on co-IP of InvF-His6 with SicA-HA (in words)” value in the test on InvF-His6 / SicA-HA is given as “impaired”.
